Here are results for two compounds from patent US20250332167A1, “PHARMACEUTICAL USE OF CDK 4/6 INHIBITOR” (priority 2021, published 2025).

Where “and” joins values, the source holds several entries; their conditions need not be identical. Identical values can stand only once.

What is called IC50 is the concentration that gives 50% inhibition. The low end stands for higher potency, the high end for lower potency. By T/C is commonly meant the ratio of treated to control. By TGI is commonly meant how far tumour growth fell short of that in controls.

In one data set the test system is NCI-H441. Kind of data set: Proliferation inhibition, non-small cell lung cancer cell line NCI-H441. Type of data set: cell-based. The note with it: Homo sapiens, NCI-H441, 72 h. As to the method:
(§1) Sixteen non-small cell lung cancer cell lines, including NCI-H1792, NCI-H1703, NCI-H441, SNU-761, NCI-H1975, NCI-H358, NCI-H1838, NCI-H1915, A549, SK-MES-1, NCI-H292, PC-9, NCI-H460, NCI-H23, NCI-H1581, and HLF, were used for the proliferation inhibition assay of the present invention compound. […] The cell detection equipment used was In Cell Analyzer 2200 (GE Healthcare).
(§2) With 60 μM as the initial concentration, ten points were obtained by serial five-fold dilution.
(§3) Each kind of cell in logarithmic growth phase was inoculated with 4000 cells/100 μl/well into a black transparent bottom 96-well plate and cultured overnight at 37° C. The next day, the plate was taken out, and 20 μL of the prepared sample dilutions was added to each well. The plate was then subjected to treatment at 37° C. for 72 hours. After the treatment period of 72 hours, the plate was taken out and 50 μL of neutral formaldehyde fixative (formaldehyde: PBS=1:9, 50 μl/well) was added to each well. The plate was then fixed at room temperature for 10-30 minutes. Subsequently, the wells were washed twice with 1× PBS (100 μl/well) and treated with 0.2% Triton™-X100 for 5-10 minutes to permeabilize the cells. […] The inhibitory rates of each compound at different concentration points were calculated by using the following formula, and IC50 values were obtained through curve fitting using GraphPad Prism 6.0 software.

Another data set deals with NCI-H1838. Kind of data set: Proliferation inhibition, non-small cell lung cancer cell line NCI-H1838. Type of data set: cell-based. The note with it: Homo sapiens, NCI-H1838, 72 h. As to the method:
as §1, §2, §3

For another data set, the system named is SNU-761. Kind of data set: Proliferation inhibition, non-small cell lung cancer cell line SNU-761. It counts as cell-based. The note with it: Homo sapiens; SNU-761, 72 h. As to the method:
as §1, §2, §3

Another data set relates to U118MG cells. Briefly: Proliferation inhibition of human glioblastoma cells U118MG (DAPI cell count, 72 h). The note with it: U-118-MG, 72 h treatment. It counts as cell-based. As to the method:
Human glioblastoma cell U118MG was purchased from NANJING COBIOER BIOSCIENCES CO., LTD. […] The cell detection equipment used was the In Cell Analyzer 2200 (GE Healthcare).
as §2
Medium for U118 MG is the MEM (low glucose) medium supplemented with 10% FBS, 1% penicillin/streptomycin, 1% sodium pyruvate, and 1% MEM NEAA. U118 MG cells were seeded at a density of 4000 cells/100 μL/well in a 96-well black clear-bottom plate and incubated at 37° C. overnight. The plate was then taken, and 20 μL of the prepared diluted samples was added to the wells. The cells were treated at 37° C. for 72 hours. After 72 hours, the plate was taken, and a neutral formaldehyde fixation solution (formaldehyde:PBS=1:9) was added at 50 μL/well. The cells were fixed at room temperature for 10-30 minutes. The wells were washed twice with 1× PBS (100 μL/well), and then permeabilized with 0.2% Triton™-X100 for 5-10 minutes (100 μL/well). […] The plate was scanned by using an In Cell Analyzer, and the number of cells in each well was analyzed. The inhibition rate of each compound at various concentration points was calculated by using the formula provided. The IC50 values were determined by curve fitting using GraphPad Prism 6.0 software.

Another data set concerns NCI-H1792. Briefly: Proliferation inhibition, non-small cell lung cancer cell line NCI-H1792. It counts as cell-based. The note with it: Homo sapiens, NCI-H1792, 72 h. As to the method: as §1, §2, §3
For a further data set, the system named is NCI-H1975 xenograft. Kind of data set: Human non-small cell lung cancer NCI-H1975 xenograft mouse model. It counts as in vivo, Balb/c nude mice. The note with it: 25 mg/kg oral gavage once daily. An excerpt: (§4) The formula for calculating tumor volume was: Tumor Volume (mm^3)=½×(a×b^2) (where “a” represents the long diameter and “b” represents the short diameter).
(§5) The relative tumor growth rate (T/C) is the percentage value of the relative tumor volume or weight between the treatment group and the control group at a certain time point. The calculation formula is as follows: • T/C(%)=TRTV/CRTV×100% (TRTV: Average RTV of the treatment group; CRTV: Average RTV of the Vehicle group; RTV=Vt/V0, where V0 is the tumor volume of the animal at the time of grouping and Vt is the tumor volume of the animal after treatment).
(§6) (T and C are the relative tumor volume (RTV) or weight (TW) of the treatment group and control group at a specific time point, respectively).
NCI-H1975 cells were cultured in RPMI1640 medium containing 10% fetal bovine serum. Log-phase NCI-H1975 cells were collected, suspended in PBS to an appropriate concentration, and used for subcutaneous tumor implantation in Balb/c nude mice. Each female mouse was implanted with 0.1 ml of NCI-H1975 cells subcutaneously. When the average tumor volume reached 171 mm^3, the mice were randomly divided into groups based on tumor size.
The positive control drugs were Palbociclib and Abemaciclib.
Each group consisted of 8 mice, and oral gavage administration was performed once daily for a total of 21 days. Tumor volume and body weight changes were observed regularly, and efficacy evaluation was conducted based on relative tumor proliferation rate (T/C) and relative tumor growth inhibition rate (TGI). The calculation methods for tumor volume, T/C, and TGI are described in Example 3.

The subject of data set [1] is Human glioblastoma model (BN2289). Kind of data set: Human glioblastoma xenograft mouse model (BN2289). Type of data set: in vivo, BALB/C nude mice. The note with it: 25 mg/kg oral gavage once daily, day 21.
Source text: Human glioblastoma model (BN2289, Crown Bioscience Co., Ltd.) tumor fragments were cut into small pieces with a diameter of 2-3 mm and subcutaneously inoculated into the right side of BALB/C nude mice. Tumor growth was monitored regularly, and when the tumors grew to an average volume of approximately 100-200 mm^3, mice were randomly divided into groups based on the tumor size.
Each group consisted of 8 mice and received oral gavage administration once daily for a total of 28 days. Regular observations were made on tumor volume and changes in body weight. Efficacy evaluation was conducted based on the relative tumor growth rate (T/C) and the relative tumor inhibition rate (TGI).
as §4, §5, §6
(In general: A xenograft is tissue or cells of one species grown in another, often human tumour cells in immunodeficient mice.)

A further data set concerns NCI-H358. Kind of data set: Proliferation inhibition, non-small cell lung cancer cell line NCI-H358. Type of data set: cell-based. The note with it: Homo sapiens, NCI-H358, 72 h. As to the method: as §1, §2, §3
The subject of the next data set is NCI-H1703. Briefly: Proliferation inhibition, non-small cell lung cancer cell line NCI-H1703. Type of data set: cell-based. The note with it: Homo sapiens, NCI-H1703, 72 h. As to the method: as §1, §2, §3

On to `CCN1CCN(Cc2ccc(Nc3ncc(F)c(-c4cc(F)c5nc(C)n(C(C)C)c5c4)n3)nc2)CC1` [Abemaciclib, reference compound], for which the IC50 in the data set with NCI-H441 stood at 40 nM; in the data set on NCI-H1838, 90.2 nM; with SNU-761 it was 54 nM; in the data set on U118MG cells it was 86 ± 22.9 nM; in the data set with NCI-H1792, 23 nM; in the data set on NCI-H358 it was 44 nM. This compound registered an IC50 with NCI-H1703 of 93 nM. This compound showed a T/C in the data set on NCI-H1975 xenograft (16 days after administration) of 93%. In addition, the tumour growth inhibition (TGI) in the data set on NCI-H1975 xenograft (16 days after administration) stood at 7%. Moreover, the “Tumor volume (x ± S)” value in the data set with NCI-H1975 xenograft (16 days after administration) is 2071 mm^3 and 2071 ± 148 mm^3. The “Day 21 Tumor Volume” value in [1] is given as 1627.31 ± 100.66 mm^3.
In the case of `CC(=O)c1c(C)c2cnc(Nc3ccc(N4CCNCC4)cn3)nc2n(C2CCCC2)c1=O` [Palbociclib, reference compound], in the data set with NCI-H1975 xenograft (16 days after administration), the T/C stood at 66%; the inhibition of tumour growth (TGI) came to 34%; the “Tumor relative volume (x ± S)” value was 7.7 ± 1.0; the “Tumor volume (x ± S)” value is 1469 mm^3 and 1469 ± 146 mm^3. In addition, the Body weight change entry in the data set with NCI-H1975 xenograft (Day 20 of treatment) was “slight decrease in body weight”. In data set [1], the “Day 21 Tumor Volume” value is 1417.98 ± 121.86 mm^3, the “Relative Average Tumor Volume” value is 9.58, the “T/C (relative tumor growth rate)” value was 66.01% and the “TGI (relative tumor inhibition rate)” value amounted to 33.99%.
